The test system of this assay is Aβ-induced toxicity. Briefly: Aβ-induced toxicity, neuroprotection by Aβ-interferer (FIG. 6). The format is cell-based. The conditions noted are these: Aβ: laminin molar ratio of 1:10^−3; internal positive control.

The values that follow come from patent publication US20020022657A1, “Methods for modulating neuronal cell death” (priority 1998, published 2002).

For the substance laminin, the Aβ-induced toxicity entry was “neuroprotective”.
